From patent publication US20260146062A1, “COMPOUNDS AND METHODS FOR TREATING DISEASES CAUSED BY VIRUSES AND BACTERIA” (The Trustees of Indiana University, priority 2022, published 2026)

Test system: SARS-CoV2 virus
Assay: Inhibition of Viral Replication (plaque count)
Format: cell-based
Details: with increased concentration of inhibitor

SMILES: CC(C)C[C@H](NC(=O)c1cc2ccccc2[nH]1)C(=O)NC(C=O)Cc1ccc(F)cc1 (stereo partly shown) [Compound 112]
- inhibition ability (FIG. 6): increased inhibition ability of Compound No. 112 with increased concentration
